Patent US8513264B2, “Combination therapy for the treatment of diabetes and related conditions” (Boehringer Ingelheim International GmbH, priority 2008, dated 2013)

How the values were obtained:
[1] = test system: Zucker Diabetic Fatty (ZDF) rats (ZDF/Crl-Lepr^fa); assay: Oral glucose tolerance test in overnight fasted 9-weeks old male ZDF rats; type: in vivo, rat; settings: 9-weeks old ZDF rats; single oral dose 3 mg/kg 30 min before glucose load 2 g/kg; versus vehicle control
Description: (§1) According to a first example an oral glucose tolerance test is performed in overnight fasted 9-weeks old male Zucker Diabetic Fatty (ZDF) rats (ZDF/Crl-Lepr^fa). A pre-dose blood sample is obtained by tail bleed. Blood glucose is measured with a glucometer, and the animals are randomized for blood glucose (n=5/group). […] The animals receive an oral glucose load (2 g/kg) 30 min after compound administration. Blood glucose is measured in tail blood 15 min, 30 min, 60 min, and 90 min after the glucose challenge. Glucose excursion is quantified by calculating the reactive glucose AUC. The data are presented as mean±SEM. The two-sided unpaired Student t-test is used for statistical comparison of the control group and the active groups as well as between active groups.

[2] = test system: Zucker Diabetic Fatty (ZDF) rats (ZDF/Crl-Lepr^fa); assay: Oral glucose tolerance test in overnight fasted 15-weeks old male ZDF rats (highly insulin-resistant model); type: in vivo, rat; settings: 15-weeks old ZDF rats; single oral dose 3 mg/kg 30 min before glucose load 2 g/kg; versus vehicle control
Description: as §1, with “to a second example an” for “to a first example an”, “overnight fasted 15-weeks old male” for “overnight fasted 9-weeks old male”, “rats (ZDF/Crl-Lepr^fa). This aged ZDF rats serve as a highly insulin-resistant animal model. A pre-dose” for “rats (ZDF/Crl-Lepr^fa). A pre-dose”, “tail blood 30 min,” for “tail blood 15 min, 30 min,”, “60 min, 90 min, 120 min, and 180” for “60 min, and 90”, “min, and 180 min after” for “min, and 90 min after”

[3] = Excretion route at therapeutic oral dose levels; type: in vivo; settings: mainly excreted via the liver

Q: With `CC#CCn1c(N2CCC[C@@H](N)C2)nc2c1c(=O)n(Cc1nc(C)c3ccccc3n1)c(=O)n2C` [Cpd. A, 1-[(4-methyl-quinazolin-2-yl)methyl]-3-methyl-7-(2-butyn-1-yl)-8-(3-(R)-amino-piperidin-1-yl)-xanthine] as the molecule, how does the “reduction of glucose excursion (reactive glucose AUC)” value [1] read?
A: Its value is 49%.

Q: And the “reduction of glucose excursion (reactive glucose AUC)” value [2]?
A: The value was 1%.

Q: What about the “excretion via the kidney” value [3] of the same molecule?
A: Its value is < 7 % of the administered oral dose.
